Test results: patent publication US20190125712A1, “COMPOUND FOR ENHANCING ACTIVITY OF ANTIBIOTIC COMPOSITIONS AND OVERCOMING DRUG RESISTANCE” (SHOOLINI UNIVERSITY OF BIOTECHNOLOGY AND MANAGEMENT SCIENCES, priority 2015, published 2019)
≈ marks a conversion by molar mass, not a printed value. Like-named read-outs stand apart in the source and are kept apart here. Peptide text beside a SMILES is read from it. * marks the point of attachment. βNA = c1ccc2cc(N*)ccc2c1

Tests used:
[1] = test system: P. aeruginosa Strain MTCC-471 (Drug sensitive or control); test: MIC, ethyl gallate as activity enhancer of antibiotics, drug sensitive P. aeruginosa; format: cell-based, Pseudomonas aeruginosa; details: for MIC: Pseudomonas aeruginosa, MTCC471, agent alone (group A ethyl gallate alone, group B antibiotics alone), read-out: Minimum Inhibitory Concentration (MIC); for MIC / Minimum Inhibitory Concentration (MIC): strain MTCC-471; for MIC Antibiotic + ethyl gallate: combination with ethyl gallate; for Minimum Inhibitory Concentration (MIC): group C: antibiotic + Ethyl gallate 1000 μg/ml; for Fold decrease in antibiotic concentration: on addition of ethyl gallate
Description: (§1) This was carried out to assess the potential of the compound to enhance antimicrobial activity and overcome antibacterial resistance.
(§2) The resistant & sensitive control strains of K. pneumonia were procured from Dr. Enrique Llobet, CIBERES, Bunyola, Spain, Dr. Mazzariol of Verona University, Italy and one sensitive control strain were procured from IMTECH, Chandigarh (Table-2). Pseudomonas aeruginosa control cultures (Sensitive & Resistant) were procured from Dr. Thilo Kohler, University of Geneva, and Department of Microbiology and Molecular Medicine Geneve, Switzerland and one sensitive control strain were procured from IMTECH, Chandigarh (Table-3).

[2] = test system: K. pneumonia Strain 52145 (Drug sensitive or control); test: MIC, ethyl gallate as activity enhancer of antibiotics, drug sensitive K. pneumonia; format: cell-based, Klebsiella pneumonia; details: for MIC: Klebsiella pneumoniae; for MIC Antibiotic + ethyl gallate: combination with ethyl gallate; for Minimum Inhibitory Concentration (MIC): group C: antibiotic + Ethyl gallate 1000 μg/ml; for Fold decrease in antibiotic concentration: on addition of ethyl gallate
Description: as §1, §2

[3] = test system: P. aeruginosa PS11 (Drug resistant); test: MIC, ethyl gallate as activity enhancer of antibiotics, drug resistant P. aeruginosa; format: cell-based, Pseudomonas aeruginosa; details: for MIC: strain PS11; for MIC Antibiotic + ethyl gallate: combination with ethyl gallate; for Fold decrease in antibiotic concentration: on addition of ethyl gallate
Description: as §1
K. pneumonia isolate was collected from Gian Sagar medical college, Patiala and characterized in Immuno-parasitoloy Lab, Shoolini University, Solan for multidrug resistance. P. aeruginosa drug resistant strain was collected from Gian Sagar medical college, Patiala and characterized in Immunoparasitoloy Lab, Shoolini University, Solan.

[4] = test system: K. pneumonia 1740 knockout (Drug resistant); format: cell-based, Klebsiella pneumonia; details: for MIC Antibiotic + ethyl gallate: combination with ethyl gallate; for MIC: group C: antibiotic + Ethyl gallate 1000 μg/ml, strain 1740 knockout; for Fold decrease in antibiotic concentration: on addition of ethyl gallate
Description: as §1, §2

[5] = Solubility of the extracted compound; format: physicochemical; details: compound extracted from T. chebula
Description: Then column chromatography was performed on silica gel to extract the compound. 6 fractions for T. chebula plant were obtained by column chromatography. All fractions of T. chebula were subjected for their synergistic activity. The fraction showing synergistic activity was then characterized to know the physical properties of bioactive molecule and the molecular weight of bioactive molecule was determined by LCMS and the structure was elucidated by NMR.

Pseudomonas aeruginosa = details: against Pseudomonas aeruginosa; Barrett J F (2001); cited from earlier work
[6] = Sensitive Strain, P. aeruginosa MTCC-471
[7] = Table 4 (K. pneumonia, both strains), agent alone, read-out: MIC
[8] = agent alone (group A ethyl gallate alone, group B antibiotics alone), strain 52145, read-out: Minimum Inhibitory Concentration (MIC)
[9] = Sensitive Strain, K. pneumonia 52145
[10] = Pseudomonas aeruginosa, agent alone (group A ethyl gallate alone, group B antibiotics alone), read-out: MIC
[11] = Resistant Strain, P. aeruginosa PS11
[12] = group C: antibiotic + Ethyl gallate 1000 μg/ml
[13] = Resistant Strain, K. pneumonia 1740 knockout

SMILES	MIC [1]	MIC Antibiotic Alone [1, 6]	MIC Antibiotic + ethyl gallate [1, 6]	Minimum Inhibitory Concentration (MIC) [1]	Fold decrease in antibiotic concentration [1, 6]	MIC [2, 7]	MIC [2, 8]	MIC Antibiotic Alone [2, 9]	MIC Antibiotic + ethyl gallate [2, 9]	Minimum Inhibitory Concentration (MIC) ([2]; strain 52145)	Fold decrease in antibiotic concentration [2, 9]	MIC [3, 10]	MIC Antibiotic Alone [3, 11]	MIC Antibiotic + ethyl gallate [3, 11]	MIC [3, 12]	Fold decrease in antibiotic concentration [3, 11]	MIC Antibiotic Alone [4, 13]	MIC Antibiotic + ethyl gallate [4, 13]	MIC [4]	Fold decrease in antibiotic concentration [4, 13]	other results
O=C(N[C@H](CO)[C@H](O)c1ccc([N+](=O)[O-])cc1)C(Cl)Cl [Chloramphenicol]	1 µg/mL	1 µg/mL	0.05 µg/mL	0.050 µg/mL	20 fold	2 µg/mL	2 µg/mL	2.000	1.000	1.000 µg/mL	2 fold	2 µg/mL	2 µg/mL	1 µg/mL	1.00 µg/mL	2 fold	2 µg/mL (≈ 6.19 µM)	0.5 µg/mL	0.500 µg/mL	4 fold	–
O=C(O)c1cn(C2CC2)c2cc(N3CCNCC3)c(F)cc2c1=O [Ciprofloxacin]	–	–	0.06 µg/mL	0.060 µg/mL	–	–	0.06 µg/mL	0.060	0.003	0.003 µg/mL	–	2 µg/mL	2 µg/mL	1 µg/mL	1.00 µg/mL	–	–	0.003 µg/mL	0.003 µg/mL	–	–
CCOC(=O)c1cc(O)c(O)c(O)c1 [Ethyl gallate, ethyl gallate]	0.06 µg/mL	–	–	–	–	2 µg/mL	2 µg/mL	–	–	–	–	2 µg/mL	–	–	–	–	–	–	–	–	MIC Ethyl gallate ([1]; Sensitive Strain, P. aeruginosa MTCC-471, ethyl gallate alone): 0.06 µg/mL; MIC Ethyl gallate ([2]; Sensitive Strain, K. pneumonia 52145, ethyl gallate alone): 2.000; MIC Ethyl gallate ([3]; Resistant Strain, P. aeruginosa PS11, ethyl gallate alone): 2 µg/mL; solubility [5]: soluble in methanol and water; MIC Ethyl gallate ([4]; Resistant Strain, K. pneumonia 1740 knockout, ethyl gallate alone): 2 µg/mL (≈ 10.1 µM)
N=C(N)NCCC[C@H](NC(=O)[C@@H](N)Cc1ccccc1)C(=O)Nc1ccc2ccccc2c1 [PAβN, L-phenylalanyl-L-arginyl-b naphthylamide] (H-Phe-Arg-βNA)	–	–	–	–	–	–	–	–	–	–	–	–	–	–	–	–	–	–	–	–	potentiation of the activity of levofloxacin (Pseudomonas aeruginosa): 8 fold
CN(C)[C@@H]1C(O)=C(C(N)=O)C(=O)[C@@]2(O)C(O)=C3C(=O)c4c(O)cccc4[C@@](C)(O)[C@H]3C[C@@H]12 [Tetracycline]	0.125 µg/mL	0.125 µg/mL	0.06 µg/mL	0.060 µg/mL	2 fold	2 µg/mL	2 µg/mL	2.000	0.500	0.500 µg/mL	4 fold	2 µg/mL	2 µg/mL	0.5 µg/mL	0.50 µg/mL	4 fold	2 µg/mL (≈ 4.5 µM)	0.5 µg/mL	0.500 µg/mL	4 fold	–
